Measured values: patent US9604961B2, “Histone demethylase inhibitors” (Celgene Quanticel Research, Inc., priority 2012, dated 2017)

Key:
KDM5A/B = assay: In vitro cell-based assay: quantitative immuno-blotting of tri-methyl H3K4 in ZR-75-1 breast cancer cells; details: Homo sapiens, 72 hours exposure, read-out: Cellular IC50
Description: This quantitative immuno-blotting assay measures the amount tri-methylated histone H3 at amino acid Lysine number 4, a specific substrate […] of the direct enzymatic activity of the histone demethylases KDM5A and KDM5B from extracts of the ZR-75-1 breast cancer cell line.
This assay is a fluorometric immunoassay for the quantification of tri-methyl H3K4 extracted from cells treated with test compound and is used as a measure of the cellular inhibition of KDM5A/B.
ZR-75-1 (PTEN null, ER+) breast cancer cells numbering 50,000 (ATCC) were seeded into each well of a 96-well tissue culture treated plate and then exposed to an 11 point dilution of test compound with final concentration ranges of test compound ranging from […] to 10 nM. […] Extracts were prepared containing all of the cellular histone material using detergent based lysis and sonication methods. These lysates were subsequently normalized for total protein content using a colorimetric bicinchonic acid assay (MicroBCA Pierce/Thermo Scientific). Normalized cell extracts were then subjected to typical immuno-blotting procedures using NuPage reagents (Life Technologies). Electrophoretically separated histones were then transferred and immobilized using polyvinylidene difluoride membrane (Immobilon-FL Millipore). The amount of tri-methylated lysine 4 of histone H3 was detected using an antibody specific to the tri-methylated state (Cell Signaling Technologies) and quantified on an infrared imager using a densitometry software package (Odyssey CLx, Image Studio, Li-Cor). This background subtracted densitometry value was reported as a ration of the GAPDH amount for that sample and then calculated as a percent of the DMSO treated sample. The software package XL-fit (IDBS) was then used to calculate a relative IC50 value for the dilution series of a given test compound according to the equation: fit=(D+((Vmax*(x^n))/((x^n)+(Km^n)))).

Jarid1B = Jarid1B (Homo sapiens (Human), UniProt Q9UGL1); assay: Jarid1B in vitro enzyme inhibition assay (TR-FRET); format: biochemical
Sequence of Jarid1B (Q9UGL1 2-751): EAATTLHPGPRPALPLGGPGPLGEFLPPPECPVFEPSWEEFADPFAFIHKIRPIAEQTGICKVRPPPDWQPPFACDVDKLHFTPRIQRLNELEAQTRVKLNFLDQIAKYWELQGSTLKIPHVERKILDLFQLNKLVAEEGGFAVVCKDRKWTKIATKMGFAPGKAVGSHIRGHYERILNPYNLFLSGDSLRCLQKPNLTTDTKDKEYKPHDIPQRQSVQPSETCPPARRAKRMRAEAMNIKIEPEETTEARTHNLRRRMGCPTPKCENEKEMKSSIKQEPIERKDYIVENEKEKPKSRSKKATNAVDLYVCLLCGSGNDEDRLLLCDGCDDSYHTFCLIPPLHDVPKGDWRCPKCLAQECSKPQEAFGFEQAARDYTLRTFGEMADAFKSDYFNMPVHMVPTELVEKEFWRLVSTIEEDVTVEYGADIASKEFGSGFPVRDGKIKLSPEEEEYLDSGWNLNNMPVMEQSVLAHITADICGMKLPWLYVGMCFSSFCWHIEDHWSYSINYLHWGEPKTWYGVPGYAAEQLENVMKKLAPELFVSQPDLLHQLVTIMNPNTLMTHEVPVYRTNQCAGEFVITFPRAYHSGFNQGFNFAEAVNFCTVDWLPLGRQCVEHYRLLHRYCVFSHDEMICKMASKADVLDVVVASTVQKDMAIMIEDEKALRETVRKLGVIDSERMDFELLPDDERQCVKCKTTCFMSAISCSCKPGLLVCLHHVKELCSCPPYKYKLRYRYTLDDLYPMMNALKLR
Method: (§1) This assay determines the ability of a test compound to inhibit Jarid1A, Jarid1B, JMJD2C, and JMJD2A demethylase activity.
The ability of test compounds to inhibit the activity of Jarid1B was determined in 384-well plate format under the following reaction conditions: 0.8 nM Jarid1B, 300 nM H3K4me3-biotin labeled peptide (Anaspec cat #64357), 2 μM alpha-ketoglutaric acid in assay buffer of 50 mM HEPES, pH7.3, 0.005% Brij35, 0.5 mM TCEP, 0.2 mg/ml BSA, 50 μM sodium L-ascorbate, and 2 μM ammonium iron(II) sulfate. Reaction product was determined quantitatively by TR-FRET after the addition of detection reagent Phycolink Streptavidin-allophycocyanin (Prozyme) and Europium-anti-mono- or di-methylated histone H3 lysine 4 (H3K4me1-2) antibody (PerkinElmer) in the presence of 5 mM EDTA in LANCE detection buffer (PerkinElmer) at a final concentration of 25 nM and 1 nM, respectively.
The assay reaction was initiated by the following: 2 μl of the mixture of 900 nM H3K4me3-biotin labeled peptide and 6 μM alpha-ketoglutaric acid with 2 μl of 11-point serial diluted inhibitor in 3% DMSO was added to each well of the plate, followed by the addition of 2 μl of 2.4 nM Jarid1B to initiate the reaction. The reaction mixture was incubated at room temperature for 30 minutes, and terminated by the addition of 6 μl of 5 mM EDTA in LANCE detection buffer containing 50 nM Phycolink Streptavidin-allophycocyanin and 2 nM Europium-anti-H3K4me1-2 antibody. Plates were read by EnVisionMultilabel Reader in TR-FRET mode (excitation at 320 nm, emission at 615 nm and 665 nm) after 1 hour incubation at room temperature. A ratio was calculated (665/615) for each well and fitted to determine inhibition constant (IC50).

FBXL10 = FBXL10 (Homo sapiens (Human), UniProt Q8NHM5); assay: FBXL10 in vitro enzyme inhibition assay (AlphaScreen); format: biochemical
Sequence of FBXL10 (Q8NHM5 1-650): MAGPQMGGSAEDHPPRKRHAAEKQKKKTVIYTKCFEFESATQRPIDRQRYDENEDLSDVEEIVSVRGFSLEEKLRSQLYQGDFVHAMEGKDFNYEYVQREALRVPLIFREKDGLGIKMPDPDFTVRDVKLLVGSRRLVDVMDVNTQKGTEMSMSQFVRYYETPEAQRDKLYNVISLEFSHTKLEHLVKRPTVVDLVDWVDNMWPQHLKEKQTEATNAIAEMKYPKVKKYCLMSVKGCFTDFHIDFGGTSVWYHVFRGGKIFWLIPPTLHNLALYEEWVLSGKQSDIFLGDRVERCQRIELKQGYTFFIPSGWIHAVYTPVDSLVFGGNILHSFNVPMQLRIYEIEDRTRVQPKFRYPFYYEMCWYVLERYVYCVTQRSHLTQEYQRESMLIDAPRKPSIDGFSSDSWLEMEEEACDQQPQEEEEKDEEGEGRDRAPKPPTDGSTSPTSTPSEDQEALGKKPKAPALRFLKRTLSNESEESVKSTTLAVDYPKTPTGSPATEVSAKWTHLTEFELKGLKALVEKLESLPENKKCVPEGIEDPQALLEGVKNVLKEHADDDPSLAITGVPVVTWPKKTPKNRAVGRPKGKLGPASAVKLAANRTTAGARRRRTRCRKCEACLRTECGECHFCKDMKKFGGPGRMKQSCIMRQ
Method: Reaction product was determined quantitatively by AlphaScreen detection after the addition of detection reagents anti-H3K36me1 antibody, AlphaScreen® Streptavidin-coated Donor beads, and AlphaScreen® Protein A Acceptor beads in 50 mM HEPES, pH7.3, 10 mM NaCl, 0.005% Brij35, 5 mM EDTA, 2 mg/ml BSA to final 10 μg/ml beads.
Plates were incubated at room temperature for 40 minutes, followed by addition of 3 μl of 50 μg/ml AlphaScreen® Streptavidin-coated Donor beads and AlphaScreen® Protein A Acceptor beads in 50 mM HEPES, pH7.3, 10 mM NaCl, 0.005% Brij35, 5 mM EDTA, 2 mg/ml BSA. Plates were read by EnVisionMultilabel Reader in AlphaScreen mode after a minimum of 2 hour or up to overnight incubation at room temperature. The AlphaScreen signal for each well was used to determine inhibition constant (IC50).

Jarid1A = Jarid1A (Homo sapiens (Human), UniProt P29375); assay: Jarid1A in vitro enzyme inhibition assay (TR-FRET); format: biochemical
Sequence of Jarid1A (P29375 1-1090): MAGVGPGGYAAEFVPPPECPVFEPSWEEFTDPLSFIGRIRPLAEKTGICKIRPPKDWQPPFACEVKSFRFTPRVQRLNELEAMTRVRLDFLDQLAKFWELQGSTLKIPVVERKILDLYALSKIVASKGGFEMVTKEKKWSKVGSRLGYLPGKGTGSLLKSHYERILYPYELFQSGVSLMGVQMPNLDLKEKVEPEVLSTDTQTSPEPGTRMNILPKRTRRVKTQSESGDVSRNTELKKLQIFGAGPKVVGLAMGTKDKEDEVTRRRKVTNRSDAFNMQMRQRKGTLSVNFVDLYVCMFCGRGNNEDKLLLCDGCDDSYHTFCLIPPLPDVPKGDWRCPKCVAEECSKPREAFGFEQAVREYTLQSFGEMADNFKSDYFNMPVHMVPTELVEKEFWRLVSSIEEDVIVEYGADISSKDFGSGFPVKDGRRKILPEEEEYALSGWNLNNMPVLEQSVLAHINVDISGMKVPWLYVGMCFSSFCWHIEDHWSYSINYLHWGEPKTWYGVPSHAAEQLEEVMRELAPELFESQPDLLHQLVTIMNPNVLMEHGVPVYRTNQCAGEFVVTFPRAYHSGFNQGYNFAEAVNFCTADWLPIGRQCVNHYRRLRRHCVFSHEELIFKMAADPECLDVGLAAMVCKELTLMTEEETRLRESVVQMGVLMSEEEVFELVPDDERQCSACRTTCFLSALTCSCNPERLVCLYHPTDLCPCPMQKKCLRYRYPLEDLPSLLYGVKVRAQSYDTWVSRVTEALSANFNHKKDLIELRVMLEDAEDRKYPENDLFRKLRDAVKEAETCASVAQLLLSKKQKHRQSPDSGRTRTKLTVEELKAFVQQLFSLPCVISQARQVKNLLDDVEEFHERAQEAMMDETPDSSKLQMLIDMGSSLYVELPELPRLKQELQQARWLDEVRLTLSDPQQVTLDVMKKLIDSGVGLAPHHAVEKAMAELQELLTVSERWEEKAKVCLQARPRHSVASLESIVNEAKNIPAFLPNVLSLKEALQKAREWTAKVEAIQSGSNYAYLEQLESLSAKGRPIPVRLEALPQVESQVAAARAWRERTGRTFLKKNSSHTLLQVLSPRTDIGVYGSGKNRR
Description: The enzymatic assay of Jarid1A activity is based upon Time Resolved-Fluorescence Resonance Energy Transfer (TR-FRET) detection.

JMJD2C = JMJD2C (Homo sapiens (Human), UniProt Q9H3R0); assay: JMJD2C in vitro enzyme inhibition assay (TR-FRET); format: biochemical
Sequence of JMJD2C (Q9H3R0 2-372): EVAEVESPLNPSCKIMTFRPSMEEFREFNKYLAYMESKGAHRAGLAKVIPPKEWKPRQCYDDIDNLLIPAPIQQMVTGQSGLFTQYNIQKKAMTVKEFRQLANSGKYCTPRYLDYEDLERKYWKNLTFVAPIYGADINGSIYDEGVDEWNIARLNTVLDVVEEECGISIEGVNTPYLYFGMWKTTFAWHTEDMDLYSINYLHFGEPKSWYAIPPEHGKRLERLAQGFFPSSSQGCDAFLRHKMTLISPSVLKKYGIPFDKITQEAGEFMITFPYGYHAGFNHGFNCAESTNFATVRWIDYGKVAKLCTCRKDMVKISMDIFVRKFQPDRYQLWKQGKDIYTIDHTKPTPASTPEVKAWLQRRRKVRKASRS
Method: Baculovirus expressed JMJD2C (GenBank Accession #BC143571, AA 2-372) was purchased from BPS Bioscience (Cat#50105).
The ability of test compounds to inhibit the activity of JMJD2C was determined in 384-well plate format under the following reaction conditions: 0.3 nM JMJD2C, 300 nM H3K9me3-biotin labeled peptide (Anaspec cat #64360), 2 μM alpha-ketoglutaric acid in assay buffer of 50 mM HEPES, pH7.3, 0.005% Brij35, 0.5 mM TCEP, 0.2 mg/ml BSA, 50 μM sodium L-ascorbate, and 2 μM ammonium iron(II) sulfate. Reaction product was determined quantitatively by TR-FRET after the addition of detection reagent Phycolink Streptavidin-allophycocyanin (Prozyme) and Europium-anti-di-methylated histone H3 lysine 9 (H3K9me2) antibody (PerkinElmer) in the presence of 5 mM EDTA in LANCE detection buffer (PerkinElmer) at a final concentration of 50 nM and 1 nM, respectively.
The assay reaction was initiated by the following: 2 μl of the mixture of 900 nM H3K9me3-biotin labeled peptide and 6 μM alpha-ketoglutaric acid with 2 μl of 11-point serial diluted inhibitor in 3% DMSO were added to each well of the plate, followed by the addition of 2 μl of 0.9 nM JMJD2C to initiate the reaction. The reaction mixture was incubated at room temperature for 30 minutes, and terminated by the addition of 6 μl of 5 mM EDTA in LANCE detection buffer containing 100 nM Phycolink Streptavidin-allophycocyanin and 2 nM Europium-anti-H3K9me2 antibody. Plates were read by EnVisionMultilabel Reader in TR-FRET mode (excitation at 320 nm, emission at 615 nm and 665 nm) after 1 hour incubation at room temperature. A ratio was calculated (665/615) for each well and fitted to determine inhibition constant (IC50).

JMJD2A = JMJD2A (Homo sapiens (Human), UniProt O75164); assay: JMJD2A in vitro enzyme inhibition assay (TR-FRET); details: read-out: JMJD2A IC50
Sequence of JMJD2A (O75164 1-350): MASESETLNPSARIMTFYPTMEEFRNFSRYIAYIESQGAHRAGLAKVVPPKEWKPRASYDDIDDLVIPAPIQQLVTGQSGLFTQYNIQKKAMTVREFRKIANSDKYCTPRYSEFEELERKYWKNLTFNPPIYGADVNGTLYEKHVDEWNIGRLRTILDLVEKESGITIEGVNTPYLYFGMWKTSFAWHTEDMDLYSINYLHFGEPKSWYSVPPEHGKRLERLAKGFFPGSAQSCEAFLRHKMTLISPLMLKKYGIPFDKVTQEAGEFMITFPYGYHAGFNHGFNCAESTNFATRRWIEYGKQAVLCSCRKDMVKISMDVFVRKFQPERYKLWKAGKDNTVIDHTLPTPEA
Method: as §1
Reaction product was determined quantitatively by TR-FRET after the addition of detection reagent Phycolink Streptavidin-allophycocyanin (Prozyme) and Europium-anti-di-methylated histone H3 lysine 9 (H3K9me2) antibody (PerkinElmer) in the presence of 5 mM EDTA in LANCE detection buffer (PerkinElmer) at a final concentration of 50 nM and 1 nM, respectively.
The assay reaction was initiated by the following: 2 μl of the mixture of 900 nM H3K9me3-biotin labeled peptide and 6 μM alpha-ketoglutaric acid with 2 μl of 11-point serial diluted inhibitor in 3% DMSO were added to each well of plate, followed by the addition of 2 μl of 6 nM JMJD2A to initiate the reaction. The reaction mixture was incubated at room temperature for 30 minutes, and terminated by the addition of 6 μl of 5 mM EDTA in LANCE detection buffer containing 100 nM Phycolink Streptavidin-allophycocyanin and 2 nM Europium-anti-H3K9me2 antibody.

Row | Compound | IC50 (KDM5A/B) | IC50 (Jarid1B) | IC50 (Jarid1A) | IC50 (JMJD2C) | IC50 (FBXL10) | IC50 (JMJD2A)
1 | Cn1ncc2ccc(COc3ccnn3-c3cc(C(=O)O)ccn3)cc21 [Example 50, 2-{5-[(1-methyl-1H-indazol-6-yl)methoxy]-1H-pyrazol-1-yl}pyridine-4-carboxylic acid] | > 10000 nM | < 100 nM | < 100 nM | – | 100 to 1000 nM | –
2 | O=C(O)c1ccnc(-n2nccc2OCc2ccc(Cl)cc2OCc2ccc(F)cc2)c1 [Example 117, 2-[5-[[4-chloro-2-[(4-fluorophenyl)methoxy]phenyl]methoxy]pyrazol-1-yl]pyridine-4-carboxylic acid] | 1000 to 10000 nM | 100 to 1000 nM | 100 to 1000 nM | 1000 to 10000 nM | 1000 to 10000 nM | 1000 to 10000 nM
3 | CCc1cc(Cl)ccc1COc1ccnn1-c1cc(C(=O)O)ccn1 [Example 127, 2-[5-[(4-chloro-2-ethylphenyl)methoxy]pyrazol-1-yl]pyridine-4-carboxylic acid] | 1000 to 10000 nM | 100 to 1000 nM | 100 to 1000 nM | 1000 to 10000 nM | – | –
4 | COc1cc(C)ccc1COc1ccnn1-c1cc(C(=O)O)ccn1 [Example 133, 2-[5-[(2-methoxy-4-methylphenyl)methoxy]pyrazol-1-yl]pyridine-4-carboxylic acid] | 100 to 1000 nM | < 100 nM | < 100 nM | 100 to 1000 nM | 1000 to 10000 nM | 100 to 1000 nM

The next lines start with results.

Row | IC50 (KDM5A/B) | IC50 (Jarid1B) | IC50 (Jarid1A) | IC50 (JMJD2C) | Compound | IC50 (FBXL10) | IC50 (JMJD2A)
5 | < 100 nM | < 100 nM | < 100 nM | 100 to 1000 nM | Cc1cc(Cl)ccc1COc1ccnn1-c1cc(C(=O)O)ccn1 [Example 89, 2-[5-[(4-chloro-2-methylphenyl)methoxy]pyrazol-1-yl]pyridine-4-carboxylic acid] | 100 to 1000 nM | –
6 | 100 to 1000 nM | < 100 nM | < 100 nM | 100 to 1000 nM | CCOc1cc(Cl)ccc1COc1ccnn1-c1cc(C(=O)O)ccn1 [Example 115, 2-[5-[(4-chloro-2-ethoxyphenyl)methoxy]pyrazol-1-yl]pyridine-4-carboxylic acid] | – | –
7 | 1000 to 10000 nM | < 100 nM | < 100 nM | 100 to 1000 nM | Cc1cc(C#N)ccc1COc1ccnn1-c1cc(C(=O)O)ccn1 [Example 125, 2-[5-[(4-cyano-2-methylphenyl)methoxy]pyrazol-1-yl]pyridine-4-carboxylic acid] | – | –
